Measurements reported in PubChem BioAssay (NCI).
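A five-concentration, 48-hour dose response in 96-well plates underlies each endpoint, interpolated linearly between surrounding concentrations. GI50: concentration for 50% inhibition of growth. The concentration for full growth arrest is given as TGI.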

Experiments:
Assay in all cases: NCI tumour cell line growth inhibition, 48 h
[1] = test system: MDA-MB-435
[2] = test system: SF-539 CNS
[3] = test system: MCF7 breast
[4] = test system: MDA-MB-231 breast
[5] = test system: RXF 393 renal
[6] = test system: MOLT-4 leukemia
[7] = test system: LOX IMVI melanoma
[8] = test system: NCI/ADR-RES ovarian
[9] = test system: SN12C renal
[10] = test system: IGROV1 ovarian

Compound	GI50 [1] [µM]	TGI [1] [µM]	GI50 [2] [µM]	TGI [2] [µM]	GI50 [3] [µM]	TGI [3] [µM]	GI50 [4] [µM]	TGI [4] [µM]	GI50 [5] [µM]	TGI [5] [µM]	GI50 [6] [µM]	TGI [6] [µM]	GI50 [7] [µM]	TGI [7] [µM]	GI50 [8] [µM]	TGI [8] [µM]	GI50 [9] [µM]	TGI [9] [µM]	TGI [10] [µM]	GI50 [10] [µM]
CC[CH2][Sn]([Cl])([Cl])[CH2]CC	12.5	26.9	11.1	25	3.27	16.5	5.16	18.9	6.96	20.6	5.35	> 100	2.8	11.4	15.8	30.7	7.08	20.2	–	–
O=C(NNC(=O)c1ccncc1)c1ccncc1	–	> 100	–	–	–	> 100	–	> 100	–	> 100	–	> 100	–	> 100	–	> 100	–	> 100	> 100	–
NC(=O)C(NC=O)c1ccccc1 (stereo unspecified)	–	> 100	–	> 100	–	> 100	–	> 100	–	> 100	–	> 100	–	> 100	–	> 100	–	> 100	> 100	–
CC1(C)CC2C=C(C=O)C3(C=O)CC3(C)C2C1 (stereo unspecified)	–	3.46	–	3.51	–	5.27	–	3.87	–	3.41	–	1.15	–	2.81	–	5.21	–	8.23	4.68	–
COc1ccc(/C=C/c2cc(N3CCOCC3)c3cc(F)c(F)cc3n2)cc1OC	1.54	12.8	0.913	4.29	0.389	9.48	0.483	4.66	1.36	10.8	0.624	11	0.516	2.27	0.432	3.03	1.68	14.1	9.67	0.968
CC(=O)OC1CCC2(C)C(=CCC3C2CCC2(C)C(C(C)C(=O)O)CCC32)C1 (stereo unspecified)	–	> 100	–	> 100	–	> 100	–	> 100	–	> 100	–	> 100	–	> 100	–	> 100	–	> 100	> 100	–
O=c1[nH]c(SCc2c(Cl)c(Cl)c(Cl)c(Cl)c2Cl)nc(=S)[nH]1	–	> 100	–	> 100	–	> 100	–	> 100	–	35.5	–	21.3	–	> 100	–	> 100	–	> 100	> 100	–
CC(=O)OC[C@]12CC[C@@H]([C@@H](C)C(N)=O)[C@@H]1[C@H]1CC[C@@H]3[C@@]4(C)CC[C@H](OC(C)=O)C(C)(C)[C@@H]4CC[C@@]3(C)[C@]1(C)CC2	5.23	22.3	5.52	17.7	3.27	12.4	11.8	30.8	4.28	16.3	3.29	15.2	10.2	24.4	7.74	27.2	5.65	18.8	30	13.2
CNC(C)C(=O)N[C@H](C(=O)N1CCC[C@@H]1CN(CCc1ccccc1)C(=O)C(F)(F)F)[C@H](C)OCC#CC#CCO[C@H](C)[C@H](NC(=O)[C@H](C)NC)C(=O)N1CCC[C@H]1CN(CCc1ccccc1)C(=O)C(F)(F)F (stereo partly specified)	1.63	3.46	< 0.01	0.199	0.239	1.76	< 0.01	< 0.01	0.0771	0.486	1.75	4.1	–	–	8.19	27.3	1.78	3.32	4.38	2.13
O=C(CCCc1ccccn1)c1ccccc1	–	> 100	–	> 100	–	> 100	–	> 100	–	> 100	–	> 100	–	> 100	–	> 100	–	> 100	> 100	–
CCOC(=O)C1=C(C)NC2SC(=O)/C(=C\c3ccccc3)N2C1c1ccccc1 (stereo unspecified)	> 100	> 100	> 100	> 100	> 100	> 100	> 100	> 100	> 100	> 100	–	–	> 100	> 100	> 100	> 100	> 100	> 100	> 100	> 100
Cc1ccccc1N=Nc1c(O)[nH]c2ccccc12	–	> 100	–	–	–	> 100	–	> 100	–	> 100	–	> 100	–	> 100	–	> 100	–	> 100	> 100	–
CCC1CC(=O)N(SCC(N)C(=O)O)C1=O (stereo unspecified)	–	> 100	–	> 100	–	> 100	–	> 100	–	> 100	–	–	–	> 100	–	> 100	–	> 100	> 100	–
